Data as given in BindingDB's records for doi:10.1021/jm030795v (Wroclaw University of Technology, 2003).
Structures can show the parent of a compound that is named as a salt.

Biological target: Cytosol aminopeptidase (Sus scrofa)
Assay: Binding affinity for cytosolic leucine aminopeptidase (LAP) from porcine kidney

| Compound | Ki [µM] |
| --- | --- |
| CC(C)CC(N)C=O (stereo not drawn) [2-Amino-4-methyl-pentanal] | 0.06 |
| CC(C)CC(OP(=O)(O)C(N)CC(C)C)C(=O)O (stereo not drawn) [2-[(1-Amino-3-methyl-butyl)-hydroxy-phosphinoyloxy]-4-methyl-pentanoic acid] | 58 |
| CC(C)CC(O)P(=O)(O)NCC(=O)O (stereo not drawn) [{[hydroxy(1-hydroxy-3-methylbutyl)phosphoryl]amino}acetic acid; dilithium salt] | 4.88 |
